Legend:
Assay in all cases: microbe, parasite or virus in culture
Type in all cases: cell-based
[1] = tested on: Staphylococcus pseudintermedius strain HH15; details: HH15, 24 h, read-out: minimal inhibiting concentration (breakthrough point)
[2] = tested on: Staphylococcus pseudintermedius strain 69687; details: Staphylococcus pseudintermedius, 69687, 24 h, read-out: minimal inhibiting concentration (breakthrough point)
[3] = tested on: Staphylococcus pseudintermedius strain 23929; details: Staphylococcus pseudintermedius, 23929, 24 h, read-out: minimal inhibiting concentration (breakthrough point)
[4] = tested on: Staphylococcus pseudintermedius strain GL151A; details: 24 h, read-out: minimal inhibiting concentration (breakthrough point)

Measured: MIC

CCC[C@@H]1C[C@@H](C(=O)N[C@@H]([C@H]2O[C@H](SC)[C@H](O)[C@@H](O)[C@H]2O)[C@H](C)Cl)N(C)C1 [clindamycin]
625 µg/mL: [1] | [2] | [3] | [4]
